According to US11753445B2, “Therapeutic peptides” (COHBAR, INC., priority 2016, dated 2023):

What was measured:
3T3-L1 Adipocytes = assay: Free fatty acid levels in cultured mouse 3T3-L1 adipocytes, forskolin stimulated (Example 3); type: cell-based; details: forskolin 1 μM; for Free Fatty Acid Levels in 3T3-L1 Adipocytes Expressed as a Percent of Forskolin Control: Percent of Control Value: test peptides 25 μM
How it was run: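 Mouse 3T3-L1 cells differentiated 12–17 days, then exposed to test peptides (25 μM) for 18–20 h, fresh peptide 1 h, then 3 h with 1 μM forskolin. Free fatty acids in medium read colorimetrically at 540 nm. Values background-corrected and expressed relative to forskolin-only cells.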

Human Primary Adipocytes = assay: Free fatty acid levels in cultured human primary adipocytes, isoproterenol stimulated (Example 4); type: cell-based; details: isoproterenol 1 nM; for Free Fatty Acid Levels in Human Primary Adipocytes Expressed as a Percent of Isoproterenol Control: Percent of Control Value: test peptides 25 μM
How it was run: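 Differentiated human primary adipocytes (14-24 days) pre-treated with peptides (25 μM final) 18-20 h plus 1 h, then stimulated 3 h at 37° C. with isoproterenol (1 nM) plus peptides. Media free fatty acids read colorimetrically (540 nm), background-corrected and expressed relative to isoproterenol-only cells.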

[1] = Stability in mouse plasma, peptides 100 uM (Example 14); type: in vitro ADME; details: mouse plasma 37° C., peptide 100 uM; for remaining at 0.25 h, 100 uM / remaining at 0.5 h, 100 uM / remaining at 1 h, 100 uM / remaining at 2 h, 100 uM / remaining at 3 h, 100 uM: pooled mouse plasma; for remaining at 0.25 h, 100 uM: 15 min, read-out: % Remaining at Each Time Point: 15 min; for remaining at 0.5 h, 100 uM: 30 min, read-out: % Remaining at Each Time Point: 30 min; for remaining at 1 h, 100 uM: 60 min, read-out: % Remaining at Each Time Point: 60 min; for remaining at 2 h, 100 uM: 120 min, read-out: % Remaining at Each Time Point: 120 min; for remaining at 3 h, 100 uM: 180 min, read-out: % Remaining at Each Time Point: 180 min
Experimental: Peptides (100 uM) were incubated in pooled mouse plasma at 37° C. and samples were removed and immediately analyzed for the concentration of intact peptide by LC/MS/MS over the course of 3 hours. The percent of peptide remaining in plasma at each time point was calculated relative to the initial peak area (Table 12).

[2] = test system: Diet Induced Obese (DIO) mice; assay: Body weight, blood glucose and fat mass in Diet Induced Obese mice, 10 days (Example 6); type: in vivo, Male C57BL/6 mice; details: male DIO mice; 10 days twice daily intraperitoneal 15 mg/kg; N = 8; mean
How it was run: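 Male DIO mice (n=8/group), randomized by blood glucose and body weight, dosed 15 mg/kg/dose once or twice daily s.c. or i.p. for 10 days vs vehicle. Body weight, blood glucose and food intake monitored; fat vs lean mass by quantitative whole-body NMR before and after dosing.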

| Substance | Free Fatty Acid Levels in 3T3-L1 Adipocytes Expressed as a Percent of Forskolin Control: Percent of Control Value (3T3-L1 Adipocytes) | Free Fatty Acid Levels in Human Primary Adipocytes Expressed as a Percent of Isoproterenol Control: Percent of Control Value (Human Primary Adipocytes) | % Remaining at Each Time Point: 0 min [1] | remaining at 0.25 h, 100 uM [1] | remaining at 0.5 h, 100 uM [1] | remaining at 1 h, 100 uM [1] | remaining at 2 h, 100 uM [1] | remaining at 3 h, 100 uM [1] | Difference from Vehicle Control: Decrease from Baseline in Blood Glucose [2] | Difference from Vehicle Control: Decrease from Baseline in Body Weight (%) [2] | Difference from Vehicle Control: Decrease from Baseline in Fat Mass [2] | Free fatty acid levels, % of the forskolin control value (3T3-L1 Adipocytes; insulin 100 nM, 3T3-L1 adipocytes) | Free fatty acid levels, % of the isoproterenol control value (Human Primary Adipocytes; insulin 100 nM, human primary adipocytes) |
| --- | --- | --- | --- | --- | --- | --- | --- | --- | --- | --- | --- | --- | --- |
| H-MRWQEMGYIFYPRKLA-OH [compound 21] | 56.0% | 88.9% | 100% | 29.9% | 31% | 21.5% | 6.41% | 2.13% | -4.21 mg/dL | −3.00% | -2.03 g | – | – |
| H-MRWQEMGYIFYPRKLR-OH [compound 2] | 59.2% | 107% | 100% | 32% | 14.8% | 7.58% | 4.78% | 1.21% | -4.88 mg/dL | −0.58% | -0.24 g | – | – |
| H-MRWQEMGYIFYPRNLR-OH [compound 213] | 36.0% | 103% | 100% | 41% | 29.4% | 20.5% | 10% | 7.45% | -20.1 mg/dL | −4.21% | -1.16 g | – | – |
| H-MRWQEMNYIFYPR-OH [compound 208] | 62.4% | 70.9% | 100% | 63.3% | 53.1% | 48.9% | 45.3% | 47.7% | -11.5 mg/dL | −5.05% | -1.87 g | – | – |
| H-MRWQEMQYIFYPRALR-OH [compound 219] | 41.5% | 69.4% | 100% | 44.5% | 40.9% | 41.3% | 19.8% | 12.2% | -17.3 mg/dL | −4.09% | -1.37 g | – | – |
| H-RWQEMNYIFYPR-OH [compound 210] | 29.2% | 75.5% | 100% | 56.2% | 44.8% | 39.6% | 34.4% | 41.4% | 8.25 mg/dL | −3.70% | -1.45 g | – | – |
| H-RWQEMQYIFYPR-OH [compound 211] | 33.7% | 79.9% | – | – | – | – | – | – | -2.25 mg/dL | −1.04% | -0.43 g | – | – |
| Insulin [reference compound] | – | – | – | – | – | – | – | – | – | – | – | < 9% | < 5% |
